Experimental findings from publication PMC7811125, “Red-shifted click beetle luciferase mutant expands the multicolor bioluminescent palette for deep tissue imaging” (iScience, 2020) are described below.

Counter-ions that a name gives are not always drawn.

The test has as its target T1, Akaluc (Photinus pyralis, UniProt P08659).
T1 construct: Akaluc, multiply mutated firefly luciferase; stably expressed in HEK cells
Nature of the test: live-cell bioluminescence imaging. The test is classed as cell-based. The following applies: HEK cells expressing Akaluc; 0.1 mM substrate; 660 nm filter.

T1 sequence (P08659 whole entry): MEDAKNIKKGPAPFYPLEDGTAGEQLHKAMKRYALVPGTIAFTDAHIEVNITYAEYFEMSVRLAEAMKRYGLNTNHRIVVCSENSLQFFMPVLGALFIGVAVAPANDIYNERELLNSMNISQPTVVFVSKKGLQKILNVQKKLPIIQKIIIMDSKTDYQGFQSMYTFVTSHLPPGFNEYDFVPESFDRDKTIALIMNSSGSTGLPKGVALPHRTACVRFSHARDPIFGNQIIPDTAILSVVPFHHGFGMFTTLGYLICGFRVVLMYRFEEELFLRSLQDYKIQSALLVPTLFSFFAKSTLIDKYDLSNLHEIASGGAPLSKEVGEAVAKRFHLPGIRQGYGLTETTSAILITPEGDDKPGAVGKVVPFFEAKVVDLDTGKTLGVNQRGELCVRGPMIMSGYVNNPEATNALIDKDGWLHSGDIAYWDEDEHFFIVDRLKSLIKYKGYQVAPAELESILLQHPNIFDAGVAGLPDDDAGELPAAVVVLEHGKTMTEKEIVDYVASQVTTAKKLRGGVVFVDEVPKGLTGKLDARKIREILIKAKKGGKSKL

Consider `CN(C)c1ccc(/C=C/C=C/C2=N[C@@H](C(=O)O)CS2)cc1` [AkaLumine-HCl], for which the live-cell bioluminescence imaging result was “Akaluc yielded the brightest photon emission with AkaLumine-HCl”.
